Results taken from BindingDB's records for doi:10.3109/14756366.2012.729827 (National University of Mexico City, 2013).

Target: T1, 3-oxo-5-alpha-steroid 4-dehydrogenase 2 (Homo sapiens, UniProt P31213)
T1 sequence (P31213 whole entry): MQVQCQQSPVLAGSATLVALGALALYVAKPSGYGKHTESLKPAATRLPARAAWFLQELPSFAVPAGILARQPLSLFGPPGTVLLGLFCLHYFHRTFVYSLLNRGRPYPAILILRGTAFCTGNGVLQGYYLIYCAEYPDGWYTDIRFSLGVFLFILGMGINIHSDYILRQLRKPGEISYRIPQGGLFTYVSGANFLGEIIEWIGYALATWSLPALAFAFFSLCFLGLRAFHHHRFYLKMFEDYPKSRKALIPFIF
Test: 5α-R2 Activity Assay
Experimental: The activity of the isozyme 5α-R type 2 was assayed as previously described [Hirosumi et al., J. Steroid Biochem. Mol. Biol., 52:357-363; Bratoeff et al., J. Steroid Biochem. Mol. Biol., 107:48-56].

C[C@]12CC[C@H](OC(=O)c3ccccc3)CC1=CCC1C2CC[C@]2(C)C(=O)CCC12 (stereo partly drawn) [17-Oxaandrost-5-ene-3β-yl-benzoate (1)]
IC50: > 100000 nM

C[C@]12CC[C@H](OC(=O)c3ccc(F)cc3)CC1=CCC1C2CC[C@]2(C)C(=O)CCC12 (stereo partly drawn) [17-Oxaandrost-5-ene-3β-yl-p-fluorobenzoate (2)]
IC50: 3.58 nM
